Measured values reported in patent US20030208035A1, “Antifungal and/or antibacterial peptides, preparation methods, compositions containing same and methods of treating mammals and/or plants” (priority 2000, published 2003).

Assays:
[1] = tested on: Candida albicans (IHEM 8060 strain); assay: Candida albicans infected model, lethal in mice (disseminated candidiasis); assay type: in vivo; conditions: for median mortality, time after infection / morbidity score at day 7: 4 injections; for morbidity score at day 7: 50 = all 10 mice healthy; for activity compared with Ard1 / mice alive on day 7 (out of 10) / time of onset of the 1st death: FIGS. 4-5, 10 mg/kg; for mice alive on day 7 (out of 10): placebo 5 alive; for time of onset of the 1st death: placebo day 2.5
Experimental: Heliomycin and its analogues were tested for in vivo antifungal activity in a model infected with Candida albicans, lethal in mice. The pathogenic agent Candida albicans (IHEM 8060 strain) was inoculated by intravenous route (i.v.) at a dose of 2.5×10^6 CFU/mouse. the peptides were administered by i.v. route in 4 injections 6 h, 24 h, 48 h and 72 h after infection. Assessment criteria for activity were evaluation of survival and morbidity at 7 days. The morbidity scores, which take into account general state of health (condition of fur, mobility, hydration) were determined for each mouse with values ranging from 0 to 5 and defined below: 0=dead, 1=moribund, 2=very ill, 3=ill, 4=slightly ill, 5=healthy. The sum of the individual scores was calculated for each group, a score of 50 for a group of 10 mice meaning that all the mice were healthy.
Following a standard protocol, groups of 10 Swiss OF1 male mice weighing 12 g were infected via i.v. route with a dose of 2.5×10^6 CFU/mouse. Heliomycin and Ard1 were administered by i.v. route in 4 injections, 6 h, 24 h, 48 h and 72 h after infection. For each peptide, 2 doses were tested: 10 mg/kg and 30 mg/kg. A placebo group was injected with peptide solvent, 0.9% sodium chloride.
In this experiment, inoculation of the mice with 2.5.10^6 CFU/mouse was 50% lethal at day 5 in the group which received placebo treatment. The first deaths occurred on post-infection day 2.5 and median mortality occurred on post-infection day 5. On day 7, 5 mice were alive and the morbidity score 15/50.
In this experiment, inoculation of Swiss OF1 mice weighing 15 g with 3.10^6 CFU of Candida albicans induces 50% mortality on day 4 after infection in the group treated with the placebo. The first deaths occur 2.5 days after infection, and 100% of the mice were dead on day 5.5.
In this experiment, inoculation of the mice with 2.5.10^6 CFU/mouse was 50% lethal at day 5 and 100% at day 8 for mice in the placebo group. The first death occurred 3 days after infection. The morbidity score fell rapidly below 30/50 (25/50 at day 2.5).
The pEM35 peptide was administered at doses of 10 and 30 mg/kg/injection with 3 daily doses for 4 days (1 h, 5 h and 10 h post-infection on day 0; at 8 h, 14 h and 20 h on days 1, 2 and 3), i.e., daily doses totalling 30 and 90 mg/kg.

Candida albicans = assay: anti-Candida albicans growth inhibition test in liquid medium (96-well microplates); assay type: cell-based; conditions: for Activity C.a. (relative activity in relation to heliomycin): fold relative to heliomycin; for Activity C.a. (relative activity in relation to Ard1): fold relative to Ard1
Experimental: (§1) The anti-Candida albicans and anti-Aspergillus fumigatus activities of the different analogues were assessed using a growth inhibition test in liquid medium made in 96-well microplates. The activity of the purified peptides was tested for different dilutions of each peptide and was compared with those of heliomycin and Ard1 quantified under the same conditions.
The activity test was made directly on yeasts derived from a stock frozen at −80° C., in Sabouraud medium containing 15% glycerol. The density of the yeasts in the stock was adjusted to an optical density of 0.4 OD at 600 nm. After slow thawing at room temperature, the yeast suspension was reduced by dilution to an optic density of 1 mOD at 600 nm in Sabouraud medium, and 90 μl of this dilution were deposited in the wells of microtitration plates in the presence of 10 μl of sample to be tested. Control samples were systematically made in which 10 μl of sample were replaced by 10 μl of sterile water. Media sterility was controlled by incubating 10 μl sterile water in the presence of 90 μl of medium. The samples were incubated at 30° C. for 40 h under slight stirring and the antifungal activity was quantified by measuring optic density at 600 nm.

Aspergillus fumigatus = assay: anti-Aspergillus fumigatus growth inhibition test in liquid medium (96-well microplates); assay type: cell-based; conditions: for Activity A.f. (relative activity in relation to heliomycin): fold relative to heliomycin; for Activity A.f. (relative activity in relation to Ard1): fold relative to Ard1
Experimental: as §1
The spores of Aspergillus fumigatus were derived from a stock frozen at −80° C., containing 10^7 spores/ml in a 25% glycerol solution. After slow thawing at room temperature, the spores were placed in suspension in PDB culture medium (12 g Potato Dextrose Broth medium, per […] water). 10 μl of each sample were deposited in the wells of microtitration plates in the presence of 90 μl PDB culture medium supplemented with tetracycline (100 μg/ml) and cefotaxime (1 μg/ml) containing the spores (at a final concentration of 1000 spores/well). Control cultures were systematically made in which 10 μl of sample were replaced by 10 μl of sterile water. Media sterility was controlled by incubating 10 μl sterile water in the presence of 90 μl of medium. The samples were incubated at 37° C. for 24 h to 48 h in a humid atmosphere, and the antifungal activity was quantified by a score of 0 to 9 taking germination account; the size and morphology of the hyphs were determined under the binocular microscope. […].

## Cc1cc(O)c2c3c4c(cc(O)c13)C(C)(C)C(=O)c1c(O)cc(O)c(c1-4)C2=O [Heliomycin, reference compound]
[1]; FIGS. 2-3, 10 mg/kg i.v.
  median mortality, time after infection: 48 h
  morbidity score at day 7: 0/50
[1]; FIGS. 2-3, 30 mg/kg i.v.
  median mortality, time after infection: 60 h
  morbidity score at day 7: 5/50
[1]; FIGS. 2-3, 2.5×10^6 CFU/mouse i.v., 10 and 30 mg/kg i.v., 4 injections 6, 24, 48, 72 h, 10 mice, placebo 100% lethal day 4
  effect on survival rate: no significant effect

## DKLIGSCVWGAVNYTRDCNGECKRRGYKGGHCGSFANVNCWCET [pEM42, peptide derived from heliomycin]
Candida albicans
  Activity C.a. (relative activity in relation to heliomycin): 8
Aspergillus fumigatus
  Activity A.f. (relative activity in relation to heliomycin): 1

## DKLIGSCVWGAVNYTRNCNAECKRRGYKGGHCGSFANVNCWCET [pEM50, peptide derived from Ard1]
Candida albicans
  Activity C.a. (relative activity in relation to Ard1): 1-2
Aspergillus fumigatus
  Activity A.f. (relative activity in relation to Ard1): 1

## DKLIGSCVWGAVNYTSDCNGECKRRGYKGGHCGSFANINCWCET [pEM23, peptide derived from heliomycin]
Candida albicans
  Activity C.a. (relative activity in relation to heliomycin): 1
Aspergillus fumigatus
  Activity A.f. (relative activity in relation to heliomycin): 2

## DKLIGSCVWGAVNYTSDCNGECKRRGYKGGHCGSFANVNCWCER [pEM7, peptide derived from heliomycin]
Candida albicans
  Activity C.a. (relative activity in relation to heliomycin): 4-8
Aspergillus fumigatus
  Activity A.f. (relative activity in relation to heliomycin): 1

## DKLIGSCVWGAVNYTSDCNGECKRRGYKGGHCGSFANVNCWCQT [pEM21, peptide derived from heliomycin]
Candida albicans
  Activity C.a. (relative activity in relation to heliomycin): 2
Aspergillus fumigatus
  Activity A.f. (relative activity in relation to heliomycin): 10-20

## DKLIGSCVWGAVNYTSDCNGECKRRGYKGGHCGSFINVNCWCET [pEM22, peptide derived from heliomycin]
Candida albicans
  Activity C.a. (relative activity in relation to heliomycin): 1-2
Aspergillus fumigatus
  Activity A.f. (relative activity in relation to heliomycin): 4-8

## DKLIGSCVWGAVNYTSDCNGECKRRGYKGGHCGSFLNINCWCET [pEM24, peptide derived from heliomycin]
Candida albicans
  Activity C.a. (relative activity in relation to heliomycin): 4
[1]
  activity compared with Ard1: more active than Ard1
  mice alive on day 7 (out of 10): 7 mice
  time of onset of the 1st death: 3 days
Aspergillus fumigatus
  Activity A.f. (relative activity in relation to heliomycin): 8

## DKLIGSCVWGAVNYTSDCNGECKRRGYKGGHCGSFLNVNCWCET [pEM25, peptide derived from heliomycin]
Candida albicans
  Activity C.a. (relative activity in relation to heliomycin): 10
Aspergillus fumigatus
  Activity A.f. (relative activity in relation to heliomycin): 6

## DKLIGSCVWGAVNYTSDCRGECKRRGYKGGHCGSFANVNCWCET [pEM44, peptide derived from heliomycin]
Candida albicans
  Activity C.a. (relative activity in relation to heliomycin): 8
Aspergillus fumigatus
  Activity A.f. (relative activity in relation to heliomycin): 2

## DKLIGSCVWGAVNYTSNCNAECKRRGYKGGHCGSFANINCWCET [pEM33, peptide derived from Ard1]
Candida albicans
  Activity C.a. (relative activity in relation to Ard1): 1
Aspergillus fumigatus
  Activity A.f. (relative activity in relation to Ard1): 1

## DKLIGSCVWGAVNYTSNCNAECKRRGYKGGHCGSFANVNCWCER [pEM30, peptide derived from Ard1]
Candida albicans
  Activity C.a. (relative activity in relation to Ard1): 4
[1]
  activity compared with Ard1: more active than Ard1
  mice alive on day 7 (out of 10): 7 mice
  time of onset of the 1st death: 4 days
Aspergillus fumigatus
  Activity A.f. (relative activity in relation to Ard1): 0.5-1

## DKLIGSCVWGAVNYTSNCNAECKRRGYKGGHCGSFINVNCWCER [pEM49, peptide derived from Ard1]
Candida albicans
  Activity C.a. (relative activity in relation to Ard1): 3
Aspergillus fumigatus
  Activity A.f. (relative activity in relation to Ard1): 1-2

## DKLIGSCVWGAVNYTSNCNAECKRRGYKGGHCGSFINVNCWCET [pEM32, peptide derived from Ard1]
Candida albicans
  Activity C.a. (relative activity in relation to Ard1): 1
Aspergillus fumigatus
  Activity A.f. (relative activity in relation to Ard1): 2

## DKLIGSCVWGAVNYTSNCNAECKRRGYKGGHCGSFINVNCWCQT [pEM47, peptide derived from Ard1]
Candida albicans
  Activity C.a. (relative activity in relation to Ard1): 2-4
Aspergillus fumigatus
  Activity A.f. (relative activity in relation to Ard1): 8

## DKLIGSCVWGAVNYTSNCNAECKRRGYKGGHCGSFLNINCWCET [pEM34, peptide derived from Ard1]
Candida albicans
  Activity C.a. (relative activity in relation to Ard1): 4
Aspergillus fumigatus
  Activity A.f. (relative activity in relation to Ard1): 4

## DKLIGSCVWGAVNYTSRCNAECKRRGYKGGHCGSFANVNCWCET [pEM52, peptide derived from Ard1]
Candida albicans
  Activity C.a. (relative activity in relation to Ard1): 1-2
Aspergillus fumigatus
  Activity A.f. (relative activity in relation to Ard1): 0.5

## DKLIGSCVWGAVNYTTDCNGECKRRGYKGGHCGSFANVNCWCET [pEM43, peptide derived from heliomycin]
Candida albicans
  Activity C.a. (relative activity in relation to heliomycin): 1
Aspergillus fumigatus
  Activity A.f. (relative activity in relation to heliomycin): 2

## DKLIGSCVWLAVNYTSNCNAECKRRGYKGGHCGSFANVNCWCET [pEM56, peptide derived from Ard1]
Candida albicans
  Activity C.a. (relative activity in relation to Ard1): 1-2
Aspergillus fumigatus
  Activity A.f. (relative activity in relation to Ard1): 0.5

## DKLIGSCVWLAVNYTSNCNAECKRRGYKGGHCGSFANVNCWCQT [pEM57, peptide derived from Ard1]
Candida albicans
  Activity C.a. (relative activity in relation to Ard1): 1
Aspergillus fumigatus
  Activity A.f. (relative activity in relation to Ard1): 8

## DKLIGSCVWLAVNYTSNCNAECKRRGYKGGHCGSFLNVNCWCET [pEM54, peptide derived from Ard1]
Candida albicans
  Activity C.a. (relative activity in relation to Ard1): 1
Aspergillus fumigatus
  Activity A.f. (relative activity in relation to Ard1): 1

## DKLIGSCVWLAVNYTSNCNAECKRRGYKGGHCGSFLNVNCWCQT [pEM55, peptide derived from Ard1]
Candida albicans
  Activity C.a. (relative activity in relation to Ard1): 1-2
Aspergillus fumigatus
  Activity A.f. (relative activity in relation to Ard1): 2-7

## DKLIGTCVWGAVNYTSDCNGECKRRGYKGGHCGSFANVNCWCET [pEM38, peptide derived from heliomycin]
Candida albicans
  Activity C.a. (relative activity in relation to heliomycin): 1
Aspergillus fumigatus
  Activity A.f. (relative activity in relation to heliomycin): 1

## NKLIGSCVWGAVNYTSDCNGECKRRGYKGGHCGSFANVNCWCET [pEM37, peptide derived from heliomycin]
Candida albicans
  Activity C.a. (relative activity in relation to heliomycin): 2

## NKLIGSCVWGAVNYTSDCNGECKRRGYKGGHCGSFANVNCWCQT [pEM39, peptide derived from heliomycin]
Candida albicans
  Activity C.a. (relative activity in relation to heliomycin): 2
Aspergillus fumigatus
  Activity A.f. (relative activity in relation to heliomycin): 4-8

## NKLIGSCVWGAVNYTSDCNGECKRRGYKGGHCGSFINVNCWCQT [pEM62, peptide derived from heliomycin]
Candida albicans
  Activity C.a. (relative activity in relation to heliomycin): 3-6
Aspergillus fumigatus
  Activity A.f. (relative activity in relation to heliomycin): 2-4

## NKLIGSCVWGAVNYTSDCNGECKRRGYKGGHCGSFLNVNCWCQT [pEM61, peptide derived from heliomycin]
Candida albicans
  Activity C.a. (relative activity in relation to heliomycin): 5-10
Aspergillus fumigatus
  Activity A.f. (relative activity in relation to heliomycin): 3-6

## NKLIGSCVWGAVNYTSNCNAECKRRGYKGGHCGSFANVNCWCET [pEM40, peptide derived from Ard1]
Candida albicans
  Activity C.a. (relative activity in relation to Ard1): 2
Aspergillus fumigatus
  Activity A.f. (relative activity in relation to Ard1): 1
